Literature values in US9079157B2, “Protein removal agent” (Thermo Fisher Scientific Baltics, UAB, priority 2012, dated 2015).

test system: enzymes; settings: referenced in the BRENDA database

Compared with `O=C(O)CCCCCC(=O)O` [pimelic, pimelic acid], `O=C(O)CCCCCCC(=O)O` [suberic, suberic acid] is lower in “Number of inhibited enzymes” value: 3 for the first, 0 for the second.

Going from `O=C(O)C(=O)O` [oxalic, oxalic acid] to `O=C(O)CC(=O)O` [malonic, malonic acid], the “Number of inhibited enzymes” value falls from 119 to 63.

Compared with `O=C(O)CCCC(=O)O` [glutaric, glutaric acid], `O=C(O)CCCCC(=O)O` [adipic, adipic acid] is lower in “Number of inhibited enzymes” value: 25 for the first, 10 for the second.

Compared with `O=C(O)CCC(=O)O` [succinic, succinic acid], `O=C(O)CC(O)(CC(=O)O)C(=O)O` [citric acid] is higher in “Number of inhibited enzymes” value: 115 for the first, 203 for the second.
